In brackets after ≈: the same amount, converted by molar mass. Where two headings read alike, the source gives them in different places.
Tests used:
[1] = gastric pH range of 1-2, aqueous solution; cited from earlier work
brain dopamine = details: rats, diet supplemented for 2 weeks; 70% depletion in nonsupplemented rodents; cited from earlier work
GP3A transgenic mice = details: creatine supplementation; cited from earlier work
[2] = system: patients with various muscular dystrophies; details: supplemented for 8 weeks; cited from earlier work
physchem = details: water

CN(CC(=O)O)C(=N)N.O [creatine monohydrate]
partition coefficient (Partition coefficient; studies in the laboratory): 0.015±0.007

CN(CC(=O)O)C(=N)N [Creatine]
creatinine/creatine ratio at equilibrium [1]: greater than or equal to 30
reduction in brain dopamine (brain dopamine): 10%
increase of life-span (GP3A transgenic mice): up to 26 days
improvement in neuromuscular symptom score [2]: 10%
increase in strength [2]: 3%
partition coefficient (Partition coefficient): 0.015

CCOC(=O)CN(C)C(=N)N [Creatine Ethyl Ester, creatine ethyl ester]
solubility thermodynamic (physchem): 206 mg/mL (≈ 1290 mM)

CN(CC(=O)OCc1ccccc1)C(=N)N [Creatine Benzyl Ester, creatine benzyl ester]
solubility thermodynamic (physchem): 89.3 mg/mL (≈ 403 mM)

Source: patent US20030212136A1 (priority 2003, published 2003)
